Measured values: patent US9993505B2, “Innervation of engineered structures” (WAKE FOREST UNIVERSITY HEALTH SCIENCES, priority 2012, dated 2018)

Columns and labels:
[1] = tested on: initially non-innervated rabbit colon circular smooth muscle construct; assay: Real time force generation of bioengineered colon smooth muscle construct, initially non-innervated (Example 2); format: cell-based
[2] = tested on: intrinsically innervated internal anal sphincter (IAS) smooth muscle construct; assay: Real time force generation of bioengineered IAS construct, initially intrinsically innervated (Example 1); format: cell-based, rabbit
[3] = tested on: initially non-innervated internal anal sphincter (IAS) smooth muscle construct; assay: Real time force generation of bioengineered IAS construct, initially non-innervated, placed 1 mm away from the innervated construct (Example 1); format: cell-based, rabbit
[4] = tested on: intrinsically innervated rabbit colon circular smooth muscle construct; assay: Real time force generation of bioengineered colon smooth muscle construct, intrinsically innervated (Example 2); format: cell-based

NC1=N[C@H](O)[C@H]2[C@H]3O[C@]4(O)O[C@@H]([C@@H](O)[C@@]2(N1)[C@@H]4O)[C@]3(O)CO [TTX, tetrodotoxin]
effect of TTX on EFS-induced relaxation [1]: completely blocked
effect of TTX on maximal Ach contraction [1]: reduced the maximal contraction
inhibition of VIP-induced relaxation in the presence of TTX [1]: 50%
inhibition of EFS-induced relaxation by pre-treatment [2]: completely inhibited
inhibition of acetylcholine-induced force generation by pre-treatment [2]: 58%
inhibition of EFS-induced relaxation by pre-treatment [3]: completely inhibited
inhibition of acetylcholine-induced force generation by pre-treatment [3]: 40%
attenuation of peak maximal Ach contraction in the presence of TTX [4]: 50-60%
effect of TTX preincubation on response to EFS [4]: completely abolished
inhibition of VIP-induced relaxation in the presence of TTX [4]: 60%

CC(=O)OCC[N+](C)(C)C [Acetylcholine, acetylcholine]
average contraction induced by Ach ([1]; 1 μM Ach, non-innervated colon constructs): 130±28 μN
force generation induced by acetylcholine ([2]; Acetylcholine 1 μM, day 20, innervated IAS construct): 153 μN
force generation induced by acetylcholine ([3]; Acetylcholine 1 μM, day 20, initially non-innervated IAS construct): 80 μN
average contraction induced by Ach ([4]; 1 μM Ach, innervated colon constructs): 150±24 μN

[Cl-].[K+] [KCl, potassium chloride]
average contraction induced by KCl [1]: 224±42 μN
average contraction induced by KCl [4]: 300±24 μN

vasoactive intestinal peptide [VIP]
maximal relaxation induced by VIP ([1]; 1 μM VIP, non-innervated colon constructs): 120±18 μN
maximal relaxation induced by VIP ([4]; 1 μM VIP, innervated colon constructs): 145±15 μN

CN1[C@@H]2CC[C@H]1C[C@@H](OC(=O)C(CO)c1ccccc1)C2 (some centres unmarked) [atropine]
inhibition of acetylcholine-induced force generation by pre-treatment [2]: 90%
inhibition of acetylcholine-induced force generation by pre-treatment [3]: 75%
